Measured values published in article PMC9719519, “Non-classical ferroptosis inhibition by a small molecule targeting PHB2” (Nature Communications, 2022).

Key:
Test in all cases: biochemical
Set-up in all cases: Eurofins recombinant human kinase profiling, remaining kinase activity as % of control, 10 uM ATP
Details in all cases: ATP 10 uM; read-out: %Ctrl@10 μM
[1] = biological target: T1, Abl (H396P) (h) (Homo sapiens, UniProt P00519, H396P)
T1 construct: gene ABL1
Outline: (§1)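 Activity measured in a commercial panel of 401 recombinant human protein kinases run as a kinase profiling service.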

[2] = biological target: T2, Aurora-B(h) (Homo sapiens, UniProt Q96GD4)
T2 construct: gene AURKB
Outline: as §1

[3] = biological target: T3, CDK5/p25(h) (Homo sapiens, UniProt Q00535)
T3 construct: p25
Outline: as §1

[4] = biological target: T4, CHK1(h) (Homo sapiens, UniProt O14757)
T4 construct: gene CHEK1
T4 sequence (O14757 whole entry): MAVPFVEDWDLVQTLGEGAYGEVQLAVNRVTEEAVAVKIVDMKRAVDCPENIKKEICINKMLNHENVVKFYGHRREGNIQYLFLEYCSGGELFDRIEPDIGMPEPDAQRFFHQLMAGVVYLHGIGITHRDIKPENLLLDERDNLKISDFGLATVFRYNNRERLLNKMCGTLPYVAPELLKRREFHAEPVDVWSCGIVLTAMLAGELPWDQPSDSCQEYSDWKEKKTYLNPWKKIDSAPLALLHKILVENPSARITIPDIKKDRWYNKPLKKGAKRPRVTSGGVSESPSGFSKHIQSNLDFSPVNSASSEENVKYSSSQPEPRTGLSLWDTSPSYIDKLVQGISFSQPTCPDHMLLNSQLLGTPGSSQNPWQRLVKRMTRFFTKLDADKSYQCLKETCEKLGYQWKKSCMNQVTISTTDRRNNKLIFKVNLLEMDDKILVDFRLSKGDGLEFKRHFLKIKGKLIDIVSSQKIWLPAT
Outline: as §1

[5] = biological target: T5, CK1ε(h) (Homo sapiens, UniProt P49674)
T5 construct: gene CSNK1E
T5 sequence (P49674 whole entry): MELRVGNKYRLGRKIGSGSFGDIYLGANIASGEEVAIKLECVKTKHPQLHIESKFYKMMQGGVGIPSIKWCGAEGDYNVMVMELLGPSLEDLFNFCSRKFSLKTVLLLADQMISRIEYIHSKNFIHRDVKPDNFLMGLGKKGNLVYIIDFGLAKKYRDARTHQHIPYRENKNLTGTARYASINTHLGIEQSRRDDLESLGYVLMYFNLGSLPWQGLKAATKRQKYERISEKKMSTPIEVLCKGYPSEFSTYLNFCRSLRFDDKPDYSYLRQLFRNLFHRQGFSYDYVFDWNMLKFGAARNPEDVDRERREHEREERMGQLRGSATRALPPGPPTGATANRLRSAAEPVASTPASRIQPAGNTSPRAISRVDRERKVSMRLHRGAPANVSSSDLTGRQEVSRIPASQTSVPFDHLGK
Outline: as §1

[6] = biological target: T6, CaMKIδ(h) (Homo sapiens, UniProt Q8IU85)
T6 construct: gene CAMK1D
T6 sequence (Q8IU85 whole entry): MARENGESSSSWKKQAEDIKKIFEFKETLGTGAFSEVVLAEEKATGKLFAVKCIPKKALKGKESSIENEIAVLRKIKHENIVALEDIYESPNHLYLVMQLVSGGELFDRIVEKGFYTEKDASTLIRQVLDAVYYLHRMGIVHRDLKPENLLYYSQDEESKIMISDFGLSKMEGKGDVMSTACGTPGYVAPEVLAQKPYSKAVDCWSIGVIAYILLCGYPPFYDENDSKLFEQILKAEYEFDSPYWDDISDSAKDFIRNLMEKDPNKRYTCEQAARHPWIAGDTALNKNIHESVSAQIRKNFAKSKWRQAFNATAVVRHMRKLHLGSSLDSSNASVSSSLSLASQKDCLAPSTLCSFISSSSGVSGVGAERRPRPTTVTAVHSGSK
Outline: as §1

[7] = biological target: EphA2(h) (Homo sapiens, UniProt P29317)
Sequence of EphA2(h) (P29317 whole entry): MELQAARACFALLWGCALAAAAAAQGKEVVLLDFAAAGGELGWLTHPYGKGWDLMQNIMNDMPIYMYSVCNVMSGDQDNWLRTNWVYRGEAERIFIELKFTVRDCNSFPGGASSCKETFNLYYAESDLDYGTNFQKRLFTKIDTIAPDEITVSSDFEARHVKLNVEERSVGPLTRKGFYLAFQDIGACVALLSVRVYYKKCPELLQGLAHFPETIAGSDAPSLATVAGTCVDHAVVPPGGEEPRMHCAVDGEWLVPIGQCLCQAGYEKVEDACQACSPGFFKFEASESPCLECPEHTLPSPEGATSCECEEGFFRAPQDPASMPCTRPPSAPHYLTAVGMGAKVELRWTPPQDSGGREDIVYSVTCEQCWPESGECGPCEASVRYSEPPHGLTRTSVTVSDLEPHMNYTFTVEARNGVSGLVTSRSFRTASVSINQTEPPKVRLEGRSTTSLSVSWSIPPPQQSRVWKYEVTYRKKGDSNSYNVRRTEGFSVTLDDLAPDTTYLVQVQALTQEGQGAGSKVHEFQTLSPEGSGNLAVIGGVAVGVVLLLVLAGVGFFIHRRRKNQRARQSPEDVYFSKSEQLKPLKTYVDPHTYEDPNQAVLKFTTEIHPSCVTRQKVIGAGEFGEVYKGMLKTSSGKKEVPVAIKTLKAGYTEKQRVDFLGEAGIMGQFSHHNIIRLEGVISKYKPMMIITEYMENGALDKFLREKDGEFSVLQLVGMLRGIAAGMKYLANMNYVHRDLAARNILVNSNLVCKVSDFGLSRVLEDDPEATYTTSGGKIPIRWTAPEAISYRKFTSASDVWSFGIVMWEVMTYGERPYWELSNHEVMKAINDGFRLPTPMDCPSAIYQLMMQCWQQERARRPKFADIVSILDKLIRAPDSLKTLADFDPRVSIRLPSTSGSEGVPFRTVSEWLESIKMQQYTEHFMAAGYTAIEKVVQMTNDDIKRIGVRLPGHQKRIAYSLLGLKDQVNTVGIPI
Outline: as §1

[8] = biological target: Flt3(h) (Homo sapiens, UniProt P36888)
Outline: as §1

[9] = biological target: T7, Fms(Y969C)(h) (Homo sapiens, UniProt P07333, Y969C)
T7 construct: gene CSF1R
Outline: as §1

[10] = biological target: T8, GCN2(h) (Homo sapiens, UniProt Q9P2K8)
T8 construct: gene EIF2AK4
Outline: as §1

[11] = biological target: T9, GSK3β(h) (Homo sapiens, UniProt P49841)
T9 construct: gene GSK3B
T9 sequence (P49841 whole entry): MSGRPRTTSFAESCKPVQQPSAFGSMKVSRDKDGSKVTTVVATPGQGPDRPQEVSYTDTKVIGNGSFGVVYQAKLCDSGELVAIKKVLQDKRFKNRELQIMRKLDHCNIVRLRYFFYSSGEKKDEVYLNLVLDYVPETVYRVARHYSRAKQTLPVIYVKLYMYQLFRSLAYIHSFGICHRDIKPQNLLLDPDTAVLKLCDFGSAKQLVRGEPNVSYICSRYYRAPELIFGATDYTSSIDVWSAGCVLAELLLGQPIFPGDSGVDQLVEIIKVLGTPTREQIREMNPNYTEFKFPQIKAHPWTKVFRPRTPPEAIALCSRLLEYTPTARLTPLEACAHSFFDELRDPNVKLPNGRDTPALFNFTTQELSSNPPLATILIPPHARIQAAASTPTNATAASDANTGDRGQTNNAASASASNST
Outline: as §1

[12] = biological target: Haspin(h) (Homo sapiens, UniProt Q8TF76)
Outline: as §1

[13] = biological target: JAK1(h) (Homo sapiens, UniProt P23458)
Sequence of JAK1(h) (P23458 whole entry): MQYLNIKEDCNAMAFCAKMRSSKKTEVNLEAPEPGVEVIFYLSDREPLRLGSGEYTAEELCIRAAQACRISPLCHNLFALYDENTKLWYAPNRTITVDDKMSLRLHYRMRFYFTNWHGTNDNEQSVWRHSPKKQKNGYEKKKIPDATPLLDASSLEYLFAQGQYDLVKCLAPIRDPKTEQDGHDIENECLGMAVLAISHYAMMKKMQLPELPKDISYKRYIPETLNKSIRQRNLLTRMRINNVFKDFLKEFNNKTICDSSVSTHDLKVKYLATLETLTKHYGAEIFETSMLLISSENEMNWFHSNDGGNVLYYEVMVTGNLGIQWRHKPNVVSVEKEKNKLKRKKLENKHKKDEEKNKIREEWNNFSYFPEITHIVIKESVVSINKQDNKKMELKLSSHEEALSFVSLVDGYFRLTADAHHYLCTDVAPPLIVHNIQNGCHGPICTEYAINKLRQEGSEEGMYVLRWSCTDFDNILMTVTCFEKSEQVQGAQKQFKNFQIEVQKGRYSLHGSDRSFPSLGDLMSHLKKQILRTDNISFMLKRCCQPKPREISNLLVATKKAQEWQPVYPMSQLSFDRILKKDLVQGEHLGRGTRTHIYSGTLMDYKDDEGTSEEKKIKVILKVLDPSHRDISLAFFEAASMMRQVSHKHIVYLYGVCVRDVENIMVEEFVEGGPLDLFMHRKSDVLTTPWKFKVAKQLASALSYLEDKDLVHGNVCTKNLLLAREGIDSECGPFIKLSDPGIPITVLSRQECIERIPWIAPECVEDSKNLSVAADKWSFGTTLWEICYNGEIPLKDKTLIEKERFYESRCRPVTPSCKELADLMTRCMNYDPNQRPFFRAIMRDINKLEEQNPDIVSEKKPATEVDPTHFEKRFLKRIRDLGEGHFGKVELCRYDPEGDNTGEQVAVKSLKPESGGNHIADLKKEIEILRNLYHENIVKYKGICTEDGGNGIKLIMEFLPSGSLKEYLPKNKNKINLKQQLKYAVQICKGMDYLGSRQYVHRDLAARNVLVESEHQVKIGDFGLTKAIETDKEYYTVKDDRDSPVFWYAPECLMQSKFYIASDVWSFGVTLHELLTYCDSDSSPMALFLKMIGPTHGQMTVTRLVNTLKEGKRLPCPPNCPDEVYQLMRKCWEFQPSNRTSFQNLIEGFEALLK
Outline: as §1

[14] = biological target: Lck(h) activated (Homo sapiens, UniProt P06239)
Outline: as §1

[15] = biological target: MAP4K5(h) (Homo sapiens, UniProt Q9Y4K4)
Outline: as §1

[16] = biological target: T10, MKK3(h) (Homo sapiens, UniProt P46734)
T10 construct: gene MAP2K3
T10 sequence (P46734 whole entry): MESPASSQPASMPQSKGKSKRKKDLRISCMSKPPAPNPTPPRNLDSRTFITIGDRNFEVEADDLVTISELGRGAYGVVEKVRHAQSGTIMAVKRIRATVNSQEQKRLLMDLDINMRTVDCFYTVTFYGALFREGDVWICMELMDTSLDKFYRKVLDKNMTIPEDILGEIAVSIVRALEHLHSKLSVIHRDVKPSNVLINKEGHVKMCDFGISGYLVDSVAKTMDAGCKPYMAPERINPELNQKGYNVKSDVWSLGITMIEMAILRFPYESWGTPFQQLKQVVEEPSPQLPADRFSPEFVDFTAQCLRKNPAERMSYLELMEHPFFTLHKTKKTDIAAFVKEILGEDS
Outline: as §1

[17] = biological target: T11, MST2(h) (Homo sapiens, UniProt Q13188)
T11 construct: gene STK3
T11 sequence (Q13188 whole entry): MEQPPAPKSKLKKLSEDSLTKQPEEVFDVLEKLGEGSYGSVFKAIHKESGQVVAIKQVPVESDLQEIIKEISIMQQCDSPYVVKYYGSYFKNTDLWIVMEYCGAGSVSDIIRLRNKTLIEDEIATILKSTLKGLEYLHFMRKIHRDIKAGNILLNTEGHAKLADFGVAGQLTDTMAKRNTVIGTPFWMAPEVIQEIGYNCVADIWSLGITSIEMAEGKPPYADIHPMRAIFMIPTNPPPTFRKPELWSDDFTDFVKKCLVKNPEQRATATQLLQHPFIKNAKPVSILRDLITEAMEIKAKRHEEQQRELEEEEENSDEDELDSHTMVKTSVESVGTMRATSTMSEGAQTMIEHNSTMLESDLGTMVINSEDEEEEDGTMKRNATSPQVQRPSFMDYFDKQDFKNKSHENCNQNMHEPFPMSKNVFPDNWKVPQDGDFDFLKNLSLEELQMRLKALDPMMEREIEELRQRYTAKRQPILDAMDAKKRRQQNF
Outline: as §1

[18] = biological target: T12, PI3 Kinase (p110(E542K)/p85)(h) (Homo sapiens, UniProt P42336, E542K)
T12 construct: gene PIK3CA
Outline: as §1

[19] = biological target: T13, PRAK(h) (Homo sapiens, UniProt Q8IW41)
T13 construct: gene MAPKAPK5
Outline: as §1

[20] = biological target: T14, Pim-3(h) (Homo sapiens, UniProt Q86V86)
T14 construct: gene PIM3
Outline: as §1

[21] = biological target: TSSK4(h) (Homo sapiens, UniProt Q6SA08)
Outline: as §1

[22] = biological target: mTOR(h) (Homo sapiens, UniProt P42345)
Outline: as §1

SMILES: C1=C(c2nc(-c3cnn(C4CCNCC4)c3)cn3cc(-c4ccccc4)nc23)CCOC1 [YL-939]
- remaining activity at 10 µM [1]: 91%
- remaining activity at 10 µM [2]: 89%
- remaining activity at 10 µM [3]: 120%
- remaining activity at 10 µM [4]: 98%
- remaining activity at 10 µM [5]: 74%
- remaining activity at 10 µM [6]: 90%
- remaining activity at 10 µM [7]: 82%
- remaining activity at 10 µM [8]: 86%
- remaining activity at 10 µM [9]: 107%
- remaining activity at 10 µM [10]: 67%
- remaining activity at 10 µM [11]: 96%
- remaining activity at 10 µM [12]: 100%
- remaining activity at 10 µM [13]: 66%
- remaining activity at 10 µM [14]: 77%
- remaining activity at 10 µM [15]: 76%
- remaining activity at 10 µM [16]: 107%
- remaining activity at 10 µM [17]: 78%
- remaining activity at 10 µM [18]: 99%
- remaining activity at 10 µM [19]: 144%
- remaining activity at 10 µM [20]: 103%
- remaining activity at 10 µM [21]: 97%
- remaining activity at 10 µM [22]: 91%
